Laboratory results from patent publication US20200340007A1, “CLALS PROTEIN, ITS CODING GENE AND USE IN PREDICTING THE HERBICIDE RESISTANCE OF WATERMELON” (BEIJING ACADEMY OF AGRICULTURE AND FORESTRY SCIENCES, priority 2018, published 2020).

What was measured:
[1] = system: P190L homozygous mutant strain seedlings; test: Identification of herbicide resistance spectrum; format: in vivo, watermelon; settings: leaf spray, tribenuron 15, halosulfuron 33.75, bensulfuron 22.5, pyrazosulfuron 24, flumetsulam 48, flucarbazone 31.5 g ai/ha, 7 days
From the text: (§1) Watermelon seeds to be tested are seeds of non-transgenic watermelon, seeds of P190L homozygous mutant strain, seeds of P190S homozygous mutant strain, seeds of P190L heterozygous mutant strain, or seeds of P190S heterozygous mutant strain.
(§2) The experiment was repeated three times, and the steps for each are as follows:
(§3) 1. Planting 5 watermelon seeds to be tested in the field and culturing routinely for 10 days until the cotyledons are flattened to obtain the watermelon seedlings to be tested.
(§4) 2. After step 1 is completed, taking the watermelon seedlings to be tested and spraying the leaves with tribenuron, halosulfuron, bensulfuron, pyrazosulfuron, flumetsulam, and flucarbazone, respectively (spraying dose of tribenuron, halosulfuron, bensulfuron, pyrazosulfuron, flumetsulam, and flucarbazone were 15, 33.75, 22.5, 24, 48, and 31.5 g ai/ha; g represents gram, ai represents the active ingredient, ha represents hectare), and then culturing for 7 days to observe the growth status of the watermelon seedling to be tested.
(§5) 3. After step 1 is completed, taking the watermelon seedlings to be tested, spraying the leaves with the same volume of water as the herbicide in step 2, and then culturing for 7 days, to observe the growth status of the watermelon seedlings as a control.

[2] = system: P190L heterozygous mutant strain seedlings; test: Identification of herbicide resistance spectrum; format: in vivo, watermelon; settings: leaf spray, tribenuron 15, halosulfuron 33.75, bensulfuron 22.5, pyrazosulfuron 24, flumetsulam 48, flucarbazone 31.5 g ai/ha, 7 days
From the text: as §1, §2, §3, §4, §5

[3] = system: P190S heterozygous mutant strain seedlings; test: Identification of herbicide resistance spectrum; format: in vivo, watermelon; settings: leaf spray, tribenuron 15, halosulfuron 33.75, bensulfuron 22.5, pyrazosulfuron 24, flumetsulam 48, flucarbazone 31.5 g ai/ha, 7 days
From the text: as §1, §2, §3, §4, §5

[4] = system: P190S homozygous mutant strain seedlings; test: Identification of herbicide resistance spectrum; format: in vivo, watermelon; settings: leaf spray, tribenuron 15, halosulfuron 33.75, bensulfuron 22.5, pyrazosulfuron 24, flumetsulam 48, flucarbazone 31.5 g ai/ha, 7 days
From the text: as §1, §2, §3, §4, §5

[5] = system: P190L homozygous mutant strain seedlings; test: Identification of resistance to the herbicide tribenuron, seedlings sprayed in the field; format: in vivo, watermelon; settings: leaf spray 17 g ai/ha
From the text: (§6) The watermelon seeds to be tested are seeds of non-transgenic watermelon, seeds of P190L homozygous mutant strains, seeds of P190S homozygous mutant strains, seeds of P190L heterozygote mutant strains, or seeds of P190S heterozygote mutant strains.
(§7) The experiment was repeated three times, and the steps for each were as follows:
(§8) 1. Planting 20 watermelon seeds to be tested in the field and culturing routinely to obtain watermelon seedlings to be tested in a two-leaf one-heart period.
(§9) 2. After step 1 is completed, taking the watermelon seedlings to be tested, spraying the leaves with tribenuron (the spraying dose is 17 g ai/ha; g represents gram, ai represents the active ingredient, and ha represents hectare), and then culturing routinely for 7 days to observe the growth status of the watermelon seedlings to be tested.

[6] = system: P190L heterozygous mutant strain seedlings; test: as above; format: in vivo, watermelon; settings: leaf spray 17 g ai/ha, observed 7 days
From the text: as §6, §7, §8, §9

[7] = system: P190S heterozygous mutant strain seedlings; test: as above; format: in vivo, watermelon; settings: leaf spray 17 g ai/ha, observed 7 days
From the text: as §6, §7, §8, §9

[8] = system: P190S homozygous mutant strain seedlings; test: as above; format: in vivo, watermelon; settings: leaf spray 17 g ai/ha
From the text: as §6, §7, §8, §9

[9] = system: non-transgenic watermelon seedlings; test: as above; format: in vivo; settings: leaf spray 17 g ai/ha
From the text: as §6, §7, §8, §9

## COc1cc(OC)nc(NC(=O)NS(=O)(=O)c2c(C(=O)O)cnn2C)n1 [pyrazosulfuron]
[1]
  resistance of seedlings to the herbicide compared with non-transgenic watermelon: obvious resistance
[2]
  resistance of seedlings to the herbicide compared with non-transgenic watermelon: obvious resistance
[3]
  resistance of seedlings to the herbicide compared with non-transgenic watermelon: obvious resistance
[4]
  resistance of seedlings to the herbicide compared with non-transgenic watermelon: obvious resistance

## Cc1ccn2nc(S(=O)(=O)Nc3c(F)cccc3F)nc2n1 [flumetsulam]
[1]
  resistance of seedlings to the herbicide compared with non-transgenic watermelon: obvious resistance
[2]
  resistance of seedlings to the herbicide compared with non-transgenic watermelon: obvious resistance
[3]
  resistance of seedlings to the herbicide compared with non-transgenic watermelon: obvious resistance
[4]
  resistance of seedlings to the herbicide compared with non-transgenic watermelon: obvious resistance

## COc1cc(OC)nc(NC(=O)NS(=O)(=O)Cc2ccccc2C(=O)O)n1 [bensulfuron]
[1]
  resistance of seedlings to the herbicide compared with non-transgenic watermelon: obvious resistance
[2]
  resistance of seedlings to the herbicide compared with non-transgenic watermelon: obvious resistance
[3]
  resistance of seedlings to the herbicide compared with non-transgenic watermelon: obvious resistance
[4]
  resistance of seedlings to the herbicide compared with non-transgenic watermelon: obvious resistance

## COc1cc(OC)nc(NC(=O)NS(=O)(=O)c2c(C(=O)O)c(Cl)nn2C)n1 [halosulfuron]
[1]
  resistance of seedlings to the herbicide compared with non-transgenic watermelon: obvious resistance
[2]
  resistance of seedlings to the herbicide compared with non-transgenic watermelon: obvious resistance
[3]
  resistance of seedlings to the herbicide compared with non-transgenic watermelon: obvious resistance
[4]
  resistance of seedlings to the herbicide compared with non-transgenic watermelon: obvious resistance

## COc1nc(C)nc(N(C)C(=O)NS(=O)(=O)c2ccccc2C(=O)O)n1 [tribenuron]
[5]; 7 days
  growth after spraying compared with seedlings of the heterozygous mutant strains: grew better
[5]; observed 7 days
  growth status of the watermelon seedlings after spraying: grew normally
[6]
  growth status of the watermelon seedlings after spraying: grew normally
[7]
  growth status of the watermelon seedlings after spraying: grew normally
[8]; 7 days
  growth after spraying compared with seedlings of the heterozygous mutant strains: grew better
[8]; observed 7 days
  growth status of the watermelon seedlings after spraying: grew normally
[9]
  time to death of seedlings after spraying: 3 to 7 days
[9]; two-leaf one-heart period, observed 7 days
  growth status of the watermelon seedlings after spraying: died quickly
[1]
  resistance of seedlings to the herbicide compared with non-transgenic watermelon: obvious resistance
[2]
  resistance of seedlings to the herbicide compared with non-transgenic watermelon: obvious resistance
[3]
  resistance of seedlings to the herbicide compared with non-transgenic watermelon: obvious resistance
[4]
  resistance of seedlings to the herbicide compared with non-transgenic watermelon: obvious resistance

## COc1nn(C(=O)NS(=O)(=O)c2ccccc2OC(F)(F)F)c(=O)n1C [flucarbazone]
[1]
  resistance of seedlings to the herbicide compared with non-transgenic watermelon: obvious resistance
[2]
  resistance of seedlings to the herbicide compared with non-transgenic watermelon: obvious resistance
[3]
  resistance of seedlings to the herbicide compared with non-transgenic watermelon: obvious resistance
[4]
  resistance of seedlings to the herbicide compared with non-transgenic watermelon: obvious resistance
